Laboratory results published in ChEMBL document CHEMBL3871262, “β-Ionone and its analogs as promising anticancer agents” (Eur J Med Chem, 2016).

What was measured:
[1] = Cytotoxicity against human LNCAP cells harboring AR T877A mutant assessed as decrease in cell viability after 72 hrs by MTT assay; assay type: functional, cell-based
[2] = Cytotoxicity against human C4-2B cells harboring AR T877A mutant assessed as decrease in cell viability after 72 hrs by MTT assay; assay type: functional, cell-based; settings: LNCaP C4-2B
[3] = Cytotoxicity against human PC3 cells assessed as decrease in cell viability after 72 hrs by MTT assay; assay type: functional, cell-based; settings: PC-3, 72 h
[4] = Cytotoxicity against human 22Rv1 cells harboring AR H874Y mutant assessed as decrease in cell viability after 72 hrs by MTT assay; assay type: functional, cell-based, CWR22R; settings: 22Rv1, 72 h
[5] = Cytotoxicity against human MDA PCa 2b cells harboring AR T877A/L701H double mutant assessed as decrease in cell viability after 72 hrs by MTT assay; assay type: functional, cell-based
[6] = Cytotoxicity against human DU145 cells assessed as decrease in cell viability after 72 hrs by MTT assay; assay type: functional, cell-based; settings: DU-145, 72 h
[7] = Growth inhibition of human MDA-MB-435 cells at 200 uM after 7 days relative to control; assay type: functional; settings: MDA-MB-435, 168 h, read-out: GI
[8] = Growth inhibition of human MDA-MB-435 cells at 50 uM after 7 days relative to control; assay type: functional; settings: MDA-MB-435, 168 h, read-out: GI
[9] = Growth inhibition of human SGC7901 cells at 25 uM after 24 to 48 hrs by MTT assay relative to control; assay type: functional; settings: SGC-7901, read-out: GI
[10] = Growth inhibition of human SGC7901 cells at 25 uM after 8 days by MTT assay relative to control; assay type: functional; settings: SGC-7901, 192 h, read-out: GI
[11] = Growth inhibition of human SGC7901 cells after 24 to 48 hrs by MTT assay; assay type: functional, cell-based; settings: SGC-7901
MDA-MB-435 [12] = assay: Induction of apoptosis in human MDA-MB-435 cells assessed as inhibition of DNA synthesis after 48 hrs relative to control; assay type: functional
[13] = Growth inhibition of human SGC7901 cells at 200 uM after 24 to 48 hrs by MTT assay relative to control; assay type: functional; settings: SGC-7901, read-out: GI
[14] = Growth inhibition of human SGC7901 cells at 100 uM after 8 days by MTT assay relative to control; assay type: functional; settings: SGC-7901, 192 h, read-out: GI
[15] = Growth inhibition of human MDA-MB-435 cells at 25 uM after 7 days relative to control; assay type: functional; settings: MDA-MB-435, 168 h, read-out: GI
[16] = Growth inhibition of human SGC7901 cells at 200 uM after 8 days by MTT assay relative to control; assay type: functional; settings: SGC-7901, 192 h, read-out: GI
[17] = Growth inhibition of human SGC7901 cells at 100 uM after 24 to 48 hrs by MTT assay relative to control; assay type: functional; settings: SGC-7901, read-out: GI
[18] = Growth inhibition of human MDA-MB-435 cells at 100 uM after 7 days relative to control; assay type: functional; settings: MDA-MB-435, 168 h, read-out: GI
[19] = Antiproliferative activity against human SGC7901 cells; assay type: functional, cell-based; settings: SGC-7901
Rattus norvegicus [20] = assay: Antitumor activity against DMBA-induced mammary carcinogenesis in Sprague-Dawley rat assessed as tumor incidence at 36 mmol/kg administered with AIN-76A diet treated 2 weeks prior to DMBA addition for 24 weeks by hematoxylin and eosin staining based microscopic analysis (reference value: 82.1%); assay type: functional
Rattus norvegicus [21] = assay: (§1) Antitumor activity against DMBA-induced mammary carcinogenesis in Sprague-Dawley rat assessed as inhibition of tumor formation at 18 mmol/kg administered with AIN-76A diet treated 2 weeks prior to DMBA addition for 24 weeks by hematoxylin and eosin staining based microscopic analysis relative to DMBA treated control; assay type: functional
[22] = Antiproliferative activity against human PC3 cells after 72 hrs by flow cytometry; assay type: functional, cell-based; settings: PC-3, 72 h
[23] = Antiproliferative activity against human MCF7 cells; assay type: functional, cell-based
[24] = Antiproliferative activity against human LNCAP cells after 72 hrs by flow cytometry; assay type: functional, cell-based
[25] = Antiproliferative activity against human DU145 cells after 72 hrs by flow cytometry; assay type: functional, cell-based; settings: DU-145, 72 h
Rattus norvegicus [26] = assay: as §1, with “36” for “18”; assay type: functional
MDA-MB-435 [27] = assay: Inhibition of clone formation in human MDA-MB-435 cells after 48 hrs relative to control; assay type: functional
MDA-MB-435 [28] = assay: Inhibition of cell mitosis in human MDA-MB-435 cells after 48 hrs relative to control; assay type: functional
[29] = Growth inhibition of human MDA-MB-435 cells after 7 days relative to control; assay type: functional, cell-based; settings: MDA-MB-435, 168 h
Rattus norvegicus [30] = assay: as §1, with “9” for “18”; assay type: functional
Rattus norvegicus [31] = assay: Antitumor activity against DMBA-induced mammary carcinogenesis in Sprague-Dawley rat assessed as tumor incidence at 18 mmol/kg administered with AIN-76A diet treated 2 weeks prior to DMBA addition for 24 weeks by hematoxylin and eosin staining based microscopic analysis (reference value: 82.1%); assay type: functional
[32] = Growth inhibition of human SGC7901 cells at 50 uM after 24 to 48 hrs by MTT assay relative to control; assay type: functional; settings: SGC-7901, read-out: GI
[33] = Growth inhibition of human SGC7901 cells at 50 uM after 8 days by MTT assay relative to control; assay type: functional; settings: SGC-7901, 192 h, read-out: GI
MCF7 [34] = assay: Induction of apoptosis in human MCF7 cells assessed as inhibition of DNA synthesis at 48 hrs relative to control; assay type: functional
MCF7 [35] = assay: Inhibition of cell mitosis in human MCF7 cells after 48 hrs relative to control; assay type: functional
Rattus norvegicus [36] = assay: Antitumor activity against DMBA-induced mammary carcinogenesis in Sprague-Dawley rat assessed as tumor incidence at 9 mmol/kg administered with AIN-76A diet treated 2 weeks prior to DMBA addition for 24 weeks by hematoxylin and eosin staining based microscopic analysis (reference value: 82.1%); assay type: functional

Which IC50 [1] does the source give for `CC1=C(/C=C/C(=O)/C=C/c2csc3ccccc23)C(C)(C)CCC1O` (stereo not given) here?
The IC50 was 0.57 to 2 µM.

What about the IC50 [2] of the same compound?
Its IC50 is 0.57 to 2 µM.

What about the IC50 [3] of the same compound?
The IC50 was 0.57 to 2 µM.

What about the IC50 [4] of the same compound?
Its IC50 is 0.57 to 2 µM.

And the IC50 [5]?
Its IC50 is 0.57 to 2 µM.

For `COc1cc(/C=C(\C(=O)/C=C/C2=C(C)C(O)CCC2(C)C)C(=O)/C=C/c2ccc(O)c(OC)c2)ccc1O` (stereo not given), which IC50 [1] is on record?
Its IC50 is 1.2 to 5.6 µM.

What about the IC50 [2] of the same compound?
The IC50 was 1.2 to 5.6 µM.

What about the IC50 [3] of the same compound?
Its IC50 is 1.2 to 5.6 µM.

And the IC50 [4]?
Its IC50 is 1.2 to 5.6 µM.

And the IC50 [6]?
The IC50 was 1.2 to 5.6 µM.

Which results are given for `CC(=O)/C=C/C1=C(C)CCCC1(C)C` [BETA-IONONE]?
inhibition of growth at 200 µM [7]: 84.9%; inhibition of growth at 50 µM [8]: 71.2%; inhibition of growth at 25 µM [9]: 12%; inhibition of growth at 25 µM [10]: 25.9%; IC50 [11]: 89 µM; inhibition (INH) (MDA-MB-435 [12]): 78.35%; inhibition of growth at 200 µM [13]: 94.2%; inhibition of growth at 100 µM [14]: 74.4%; inhibition of growth at 25 µM [15]: 45.6%; inhibition of growth at 200 µM [16]: 90.1%; inhibition of growth at 100 µM [17]: 78.2%; inhibition of growth at 100 µM [18]: 81.5%; IC50 [19]: 175 µM; Activity (Rattus norvegicus [20]): 10%; inhibition in vivo at 18000 µmol/kg (Rattus norvegicus [21]): 68.3%; IC50 [22]: 130 µM; IC50 [23]: 104 µM; IC50 [24]: 130 µM; IC50 [25]: 210 µM; inhibition in vivo at 36000 µmol/kg (Rattus norvegicus [26]): 87.8%; inhibition (INH) (MDA-MB-435 [27]): 95.55%; inhibition (INH) (MDA-MB-435 [28]): 75.12%; IC50 [29]: 42 µM; inhibition in vivo at 9000 µmol/kg (Rattus norvegicus [30]): 35.4%; Activity (Rattus norvegicus [31]): 25.9%; inhibition of growth at 50 µM [32]: 30.6%; inhibition of growth at 50 µM [33]: 28.2%; inhibition (INH) (MCF7 [34]): 35.1 - 81.89%; inhibition (INH) (MCF7 [35]): 87.79%; Activity (Rattus norvegicus [36]): 53.3%
